# Where “and” joins values, the source holds several entries; their conditions need not be identical. Identical values can stand only once. Inconclusive results and toxic doses are left out.
# Test system: BDF1 mice, B16 melanoma ip, median survival T/C
# Test: NCI In Vivo Anticancer Drug Screen. Data for tumor model B16 Melanoma (intraperitoneal) in B6D2F1 (BDF1) mice
# Conditions: endpoint: median survival time, higher = longer survival
# Summary of the method: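 Each result divides a survival or tumor-size measurement in the compound-treated group by the same measurement in the vehicle group.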
# [1] = dose: 12.5 mg/kg/injection, schedule: Q01DX009 (ip), vehicle: saline
# [2] = dose: 25.0 mg/kg/injection, schedule: Q01DX009 (ip), vehicle: saline
# [3] = dose: 6.25 mg/kg/injection, schedule: Q01DX009 (ip), vehicle: Klucel (hydroxypropylcellulose) (HPC)
# [4] = dose: 12.5 mg/kg/injection, schedule: Q01DX009 (ip), vehicle: Klucel (hydroxypropylcellulose) (HPC)
# [5] = dose: 25.0 mg/kg/injection, schedule: Q01DX009 (ip), vehicle: Klucel (hydroxypropylcellulose) (HPC)
# [6] = dose: 50.0 mg/kg/injection, schedule: Q01DX009 (ip), vehicle: Klucel (hydroxypropylcellulose) (HPC)
# [7] = dose: 50.0 mg/kg/injection, schedule: Q01DX009 (ip), vehicle: saline with Tween-80
# [8] = dose: 100.0 mg/kg/injection, schedule: Q01DX009 (ip), vehicle: saline with Tween-80
# [9] = dose: 100.0 mg/kg/injection, schedule: Q01DX009 (ip), vehicle: Klucel (hydroxypropylcellulose) (HPC)
# [10] = dose: 200.0 mg/kg/injection, schedule: Q01DX009 (ip), vehicle: Klucel (hydroxypropylcellulose) (HPC)
smiles,measurement,setting,value
CC1CCC2(OC1)OC1C(O)C3C4CCC5CC(OC6OC(CO)C(OC7OC(CO)C(O)C(OC8OCC(O)C(O)C8O)C7OC7OC(CO)C(O)C(OC8OC(CO)C(O)C(O)C8O)C7O)C(O)C6O)C(O)CC5(C)C4CCC3(C)C1C2C (configuration not stated),T/C,"dose: 0.62 mg/kg/injection, schedule: Q01DX009 (ip), vehicle: saline",109 % of control
same,T/C,"dose: 1.25 mg/kg/injection, schedule: Q01DX009 (ip), vehicle: saline",99 % of control
same,T/C,"dose: 2.5 mg/kg/injection, schedule: Q01DX009 (ip), vehicle: saline",103 % of control
same,T/C,"dose: 5.0 mg/kg/injection, schedule: Q01DX009 (ip), vehicle: saline",92 % of control
CC(=O)O[C@H]1C(=O)[C@@]2(C)[C@H]([C@H](OC(=O)c3ccccc3)[C@]3(O)C[C@H](OC(=O)[C@H](O)[C@@H](NC(=O)c4ccccc4)c4ccccc4)C(C)=C1C3(C)C)[C@]1(OC(C)=O)CO[C@@H]1C[C@@H]2O,T/C,"dose: 0.66 mg/kg/injection, schedule: Q01DX005 (iv), vehicle: other",100 % of control
same,T/C,"dose: 0.66 mg/kg/injection, schedule: Q08HX018 (ip), vehicle: Klucel (hydroxypropylcellulose) (HPC)",160 % of control
same,T/C,"dose: 0.66 mg/kg/injection, schedule: Q08HX018 (ip), vehicle: other",110 % of control
same,T/C,"dose: 0.98 mg/kg/injection, schedule: Q08HX018 (ip), vehicle: Klucel (hydroxypropylcellulose) (HPC)",183 % of control
same,T/C,"dose: 1.25 mg/kg/injection, schedule: Q01DX009 (ip), vehicle: Klucel (hydroxypropylcellulose) (HPC)",153 % of control and 181 % of control
same,T/C,"dose: 1.25 mg/kg/injection, schedule: Q01DX009 (oral), vehicle: Klucel (hydroxypropylcellulose) (HPC)",91 % of control
same,T/C,"dose: 1.32 mg/kg/injection, schedule: Q01DX009 (ip), vehicle: Klucel (hydroxypropylcellulose) (HPC)",164 % of control
same,T/C,"dose: 1.48 mg/kg/injection, schedule: Q01DX005 (iv), vehicle: other",105 % of control
same,T/C,"dose: 1.48 mg/kg/injection, schedule: Q08HX018 (ip), vehicle: Klucel (hydroxypropylcellulose) (HPC)",207 % of control
same,T/C,"dose: 1.48 mg/kg/injection, schedule: Q08HX018 (ip), vehicle: other",174 % of control
same,T/C,"dose: 1.98 mg/kg/injection, schedule: Q01DX009 (ip), vehicle: Klucel (hydroxypropylcellulose) (HPC)",183 % of control and 200 % of control
same,T/C,"dose: 2.22 mg/kg/injection, schedule: Q08HX018 (ip), vehicle: Klucel (hydroxypropylcellulose) (HPC)",187 % of control
same,T/C,"dose: 2.22 mg/kg/injection, schedule: Q08HX018 (ip), vehicle: other",193 % of control
same,T/C,"dose: 2.5 mg/kg/injection, schedule: Q01DX009 (ip), vehicle: other",106 % of control
same,T/C,"dose: 2.5 mg/kg/injection, schedule: Q01DX009 (oral), vehicle: Klucel (hydroxypropylcellulose) (HPC)",116 % of control
same,T/C,"dose: 2.96 mg/kg/injection, schedule: Q01DX009 (ip), vehicle: Klucel (hydroxypropylcellulose) (HPC)",206 % of control and 217 % of control
same,T/C,"dose: 3.33 mg/kg/injection, schedule: Q01DX005 (iv), vehicle: other",95 % of control
same,T/C,"dose: 3.33 mg/kg/injection, schedule: Q08HX018 (ip), vehicle: Klucel (hydroxypropylcellulose) (HPC)",198 % of control
same,T/C,"dose: 4.44 mg/kg/injection, schedule: Q01DX009 (ip), vehicle: Klucel (hydroxypropylcellulose) (HPC)",194 % of control and 231 % of control
same,T/C,"dose: 5.0 mg/kg/injection, schedule: Q08HX018 (ip), vehicle: Klucel (hydroxypropylcellulose) (HPC)",240 % of control
same,T/C,"dose: 5.0 mg/kg/injection, schedule: Q08HX018 (ip), vehicle: other",150 % of control and 208 % of control
same,T/C,"dose: 7.5 mg/kg/injection, schedule: Q01DX005 (iv), vehicle: other",100 % of control
same,T/C,"dose: 7.5 mg/kg/injection, schedule: Q08HX018 (ip), vehicle: Klucel (hydroxypropylcellulose) (HPC)",122 % of control
same,T/C,"dose: 11.2 mg/kg/injection, schedule: Q01DX005 (iv), vehicle: other",108 % of control
same,T/C,"dose: 20.0 mg/kg/injection, schedule: Q01DX009 (oral), vehicle: Klucel (hydroxypropylcellulose) (HPC)",108 % of control
same,T/C,"dose: 40.0 mg/kg/injection, schedule: Q01DX009 (oral), vehicle: Klucel (hydroxypropylcellulose) (HPC)",106 % of control
CNc1n[n+](-c2ccccc2)no1,T/C,[1],119 % of control
same,T/C,[2],124 % of control
Cc1nc2c(=O)n(C)c(=O)n(C)c2n1C,T/C,"dose: 50.0 mg/kg/injection, schedule: Q04DX003 (ip), vehicle: saline with Tween-80",105 % of control
same,T/C,"dose: 100.0 mg/kg/injection, schedule: Q04DX003 (ip), vehicle: saline with Tween-80",105 % of control
same,T/C,"dose: 200.0 mg/kg/injection, schedule: Q04DX003 (ip), vehicle: saline with Tween-80",105 % of control
Clc1sc2ccccc2c1Cl,T/C,[3],93 % of control
same,T/C,[4],92 % of control
same,T/C,[5],91 % of control
same,T/C,[6],90 % of control
Cc1ccc(Cl)cc1NS(=O)(=O)c1cccc([N+](=O)[O-])c1,T/C,[7],111 % of control
same,T/C,[8],107 % of control
same,T/C,"dose: 200.0 mg/kg/injection, schedule: Q01DX009 (ip), vehicle: saline with Tween-80",100 % of control
C[n+]1ccccc1/C=C/c1cccc([N+](=O)[O-])c1,T/C,"dose: 5.0 mg/kg/injection, schedule: Q01DX009 (ip), vehicle: saline with Tween-80",110 % of control
same,T/C,"dose: 5.0 mg/kg/injection, schedule: Q04DX003 (ip), vehicle: saline with Tween-80",105 % of control
same,T/C,"dose: 10.0 mg/kg/injection, schedule: Q01DX009 (ip), vehicle: saline with Tween-80",100 % of control
same,T/C,"dose: 20.0 mg/kg/injection, schedule: Q01DX009 (ip), vehicle: saline with Tween-80",100 % of control
same,T/C,"dose: 20.0 mg/kg/injection, schedule: Q04DX003 (ip), vehicle: saline with Tween-80",89 % of control
CCCCCCCCCNC(=O)Nc1cccc(Cl)c1C,T/C,[7],99 % of control
same,T/C,[8],91 % of control
C[C@]12CC[C@@H]3c4ccc(OC(=O)Cc5ccc(N(CCCl)CCCl)cc5)cc4CC[C@H]3[C@@H]1CC[C@@H]2OC(=O)Cc1ccc(N(CCCl)CCCl)cc1,T/C,[4],95 % of control
same,T/C,[5],108 % of control
same,T/C,[6],104 % of control
same,T/C,"dose: 64.0 mg/kg/injection, schedule: Q02DX009 (ip), vehicle: Klucel (hydroxypropylcellulose) (HPC)",95 % of control
same,T/C,[9],111 % of control
same,T/C,[10],118 % of control
same,T/C,"dose: 256.0 mg/kg/injection, schedule: Q02DX009 (ip), vehicle: Klucel (hydroxypropylcellulose) (HPC)",90 % of control
same,T/C,"dose: 400.0 mg/kg/injection, schedule: Q01DX009 (ip), vehicle: Klucel (hydroxypropylcellulose) (HPC)",123 % of control
CN(C)C1=NC(=O)C(c2ccccc2)O1 (configuration not stated),T/C,[1],117 % of control
same,T/C,[2],105 % of control
same,T/C,"dose: 50.0 mg/kg/injection, schedule: Q01DX009 (ip), vehicle: saline",111 % of control
same,T/C,"dose: 100.0 mg/kg/injection, schedule: Q01DX009 (ip), vehicle: saline",114 % of control
COC(=O)C1C(O)C(C)C(O)C(C)C=C(C)C2=C3C(=C(C)C(=O)c4c(O)c(c(C)c(OC(C)=O)c43)NC(=O)C(C)=C/C=C\C(C)C(O)C(C)C1O)OCO2 (configuration not stated),T/C,[3],97 % of control
same,T/C,[4],94 % of control
same,T/C,[5],88 % of control
same,T/C,"dose: 25.0 mg/kg/injection, schedule: Q01DX009 (ip), vehicle: carboxymethylcellulose (CMC)",112 % of control
same,T/C,"dose: 50.0 mg/kg/injection, schedule: Q01DX009 (ip), vehicle: carboxymethylcellulose (CMC)",112 % of control
same,T/C,[9],89 % of control
COc1ccc(I)c([N+](=O)[O-])c1,T/C,[6],93 % of control
same,T/C,[9],93 % of control
same,T/C,[10],87 % of control
Cc1ccc(NC(=O)COc2ccc(Cl)cc2)c([N+](=O)[O-])c1,T/C,"dose: 75.0 mg/kg/injection, schedule: Q01DX009 (ip), vehicle: Klucel (hydroxypropylcellulose) (HPC)",95 % of control
same,T/C,"dose: 150.0 mg/kg/injection, schedule: Q01DX009 (ip), vehicle: Klucel (hydroxypropylcellulose) (HPC)",97 % of control
same,T/C,"dose: 300.0 mg/kg/injection, schedule: Q01DX009 (ip), vehicle: Klucel (hydroxypropylcellulose) (HPC)",90 % of control
Cc1cc(OC(=O)Nc2cccc(Cl)c2)ccc1[N+](=O)[O-],T/C,[6],93 % of control
same,T/C,"dose: 50.0 mg/kg/injection, schedule: Q04DX003 (ip), vehicle: Klucel (hydroxypropylcellulose) (HPC)",100 % of control
same,T/C,[9],86 % of control
same,T/C,"dose: 100.0 mg/kg/injection, schedule: Q04DX003 (ip), vehicle: Klucel (hydroxypropylcellulose) (HPC)",100 % of control
same,T/C,"dose: 200.0 mg/kg/injection, schedule: Q04DX003 (ip), vehicle: Klucel (hydroxypropylcellulose) (HPC)",107 % of control
O=C(O)c1c(O)c(-c2ccccc2)nc2ccccc12,T/C,[6],103 % of control
same,T/C,[9],103 % of control
Cc1ccc(N(CCCl)CCCl)cc1NC(=O)c1ccccc1,T/C,"dose: 400.0 mg/kg/injection, schedule: Q01DX009 (ip), vehicle: saline",161 % of control
same,T/C,"dose: 800.0 mg/kg/injection, schedule: Q01DX009 (ip), vehicle: saline",188 % of control

# From PubChem BioAssay AID192 (DTP/NCI, 2004)
